We go through five compounds from ChEMBL document CHEMBL1759972, “Phenoxyacetic acids as PPARδ partial agonists: synthesis, optimization, and in vivo efficacy” (Bioorg Med Chem Lett, 2011).

Data set [1] deals with Mus musculus. Description: Dose normalized AUC (0 to 24 hrs) in CD mouse at 10 mg/kg, po. The arrangement: time < 24 hr, dose 10 mg/kg, route oral. The following applies: in vivo. Type of data set: ADME, organism-based.
Data set [2] concerns the target T1, Peroxisome proliferator-activated receptor alpha (Homo sapiens, UniProt Q07869).
T1 sequence (Q07869 whole entry): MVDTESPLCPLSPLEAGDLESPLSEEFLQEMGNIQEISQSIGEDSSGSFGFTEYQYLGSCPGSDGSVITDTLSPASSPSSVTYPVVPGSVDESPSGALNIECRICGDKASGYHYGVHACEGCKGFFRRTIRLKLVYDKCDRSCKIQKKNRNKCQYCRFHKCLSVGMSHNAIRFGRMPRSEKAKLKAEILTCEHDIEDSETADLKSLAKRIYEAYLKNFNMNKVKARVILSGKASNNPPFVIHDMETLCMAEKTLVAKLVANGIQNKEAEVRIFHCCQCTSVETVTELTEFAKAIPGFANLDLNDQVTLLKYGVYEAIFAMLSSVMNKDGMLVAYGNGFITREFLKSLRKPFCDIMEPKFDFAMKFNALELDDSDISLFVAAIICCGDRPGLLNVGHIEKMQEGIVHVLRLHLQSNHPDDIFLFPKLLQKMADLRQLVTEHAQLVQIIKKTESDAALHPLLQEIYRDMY
The data set is described as follows: Displacement of [3H]GW 2433 from human PPARalpha by scintillation proximity assay. In general terms: Displacement assays read how much labelled ligand stays bound in the presence of the test substance.

For data set [3], the target named is T2, Peroxisome proliferator-activated receptor delta (Homo sapiens, UniProt Q03181).
T2 sequence (Q03181 whole entry): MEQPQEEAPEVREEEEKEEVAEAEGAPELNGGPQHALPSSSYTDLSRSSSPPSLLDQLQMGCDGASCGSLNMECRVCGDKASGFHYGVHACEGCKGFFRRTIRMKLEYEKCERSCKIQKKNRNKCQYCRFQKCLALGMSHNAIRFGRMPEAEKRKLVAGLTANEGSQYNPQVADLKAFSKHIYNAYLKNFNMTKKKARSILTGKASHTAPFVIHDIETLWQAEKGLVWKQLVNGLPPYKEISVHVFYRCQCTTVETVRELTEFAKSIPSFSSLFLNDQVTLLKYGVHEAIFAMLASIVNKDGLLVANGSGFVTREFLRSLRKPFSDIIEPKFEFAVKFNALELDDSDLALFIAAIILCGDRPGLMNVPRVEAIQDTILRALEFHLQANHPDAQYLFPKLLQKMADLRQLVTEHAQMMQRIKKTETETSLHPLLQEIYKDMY
Description: Partial agonist activity at human PPARdelta expressed in african green monkey CV1 cells transfected with Gal4 assessed as beta-galactosidase activity by transactivation assay

Data set [4] addresses T2, Peroxisome proliferator-activated receptor delta. This is another data set of the same source.
Description: Displacement of [3H]GW 2433 from human PPARdelta by scintillation proximity assay
Data set [5] shares this target. The data set is described as follows: Induction of human PPARdelta-mediated CPT1a gene expression in human skeletal muscle. In kind it is tissue-based, Muscle tissue.
Data set [6] relates to Mus musculus. The data set is described as follows: Antidiabetic activity in fasting insulin-resistant ob/ob mouse assessed as decrease in body weight gain at 100 mg/kg, po administered once daily for 15 days. In kind it is functional, organism-based. The arrangement: dose 100 mg/kg.
Data set [7] can be described thus: Aqueous solubility of the compound. Type of data set: physicochemical.
Another data set deals with Cytochrome P450 2C19 (Homo sapiens, UniProt P33261). The data set is described as follows: Inhibition of CYP2C19. Type of data set: ADME.
Cytochrome P450 2C19, sequence (P33261 whole entry): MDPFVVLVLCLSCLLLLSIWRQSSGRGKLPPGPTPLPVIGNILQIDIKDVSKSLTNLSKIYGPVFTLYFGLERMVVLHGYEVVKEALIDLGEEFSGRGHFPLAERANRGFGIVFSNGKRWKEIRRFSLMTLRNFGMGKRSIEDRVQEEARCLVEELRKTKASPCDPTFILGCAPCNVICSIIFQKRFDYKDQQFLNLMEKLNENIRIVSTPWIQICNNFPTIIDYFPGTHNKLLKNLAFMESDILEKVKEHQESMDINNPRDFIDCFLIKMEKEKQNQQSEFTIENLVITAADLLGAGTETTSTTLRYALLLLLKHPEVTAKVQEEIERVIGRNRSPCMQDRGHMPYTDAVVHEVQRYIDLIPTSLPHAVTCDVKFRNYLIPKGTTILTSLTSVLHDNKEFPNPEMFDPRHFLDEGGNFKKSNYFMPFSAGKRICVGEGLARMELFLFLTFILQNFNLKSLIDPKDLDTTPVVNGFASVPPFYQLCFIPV
Data set [8] addresses T3, Peroxisome proliferator-activated receptor gamma (Homo sapiens, UniProt P37231).
T3 sequence (P37231 whole entry): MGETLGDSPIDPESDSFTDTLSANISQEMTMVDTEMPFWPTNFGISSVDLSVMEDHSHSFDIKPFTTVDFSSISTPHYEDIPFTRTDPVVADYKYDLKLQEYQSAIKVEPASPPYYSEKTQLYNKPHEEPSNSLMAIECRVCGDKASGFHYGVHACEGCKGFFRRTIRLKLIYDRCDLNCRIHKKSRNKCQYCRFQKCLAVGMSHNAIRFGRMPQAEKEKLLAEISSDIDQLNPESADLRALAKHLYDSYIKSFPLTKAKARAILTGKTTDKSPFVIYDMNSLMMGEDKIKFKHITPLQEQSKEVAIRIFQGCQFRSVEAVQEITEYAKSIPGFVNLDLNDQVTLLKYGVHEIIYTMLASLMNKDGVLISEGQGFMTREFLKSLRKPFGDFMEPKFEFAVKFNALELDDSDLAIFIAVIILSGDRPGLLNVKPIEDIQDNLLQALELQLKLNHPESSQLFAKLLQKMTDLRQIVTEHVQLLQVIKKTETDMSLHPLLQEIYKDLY
Description: Displacement of [3H]GW 2433 from human PPARgamma by scintillation proximity assay

In data set [9] the target is T2, Peroxisome proliferator-activated receptor delta. Description: Induction of human PPARdelta-mediated PDK4 gene expression in human skeletal muscle. Type of data set: tissue-based, Muscle tissue.
A short description of data set [10]: AUC (0 to infinity) in CD mouse at 10 mg/kg, po. Particulars: plasma. In kind it is ADME, organism-based. The arrangement: time infinity, dose 10 mg/kg, route oral.
The test system of data set [11] is Mus musculus. The data set is described as follows: Antidiabetic activity in fasting insulin-resistant ob/ob mouse assessed as improvement in glucose sensitivity at 30 mg/kg, po administered once daily for 15 days measured on day 12 of dosing by OGTT method. Type of data set: functional, organism-based. The arrangement: dose 30 mg/kg.
In another data set the target is Cytochrome P450 2C9 (Homo sapiens, UniProt P11712). The data set is described as follows: Inhibition of CYP2C9. In kind it is ADME.
Cytochrome P450 2C9, sequence (P11712 whole entry): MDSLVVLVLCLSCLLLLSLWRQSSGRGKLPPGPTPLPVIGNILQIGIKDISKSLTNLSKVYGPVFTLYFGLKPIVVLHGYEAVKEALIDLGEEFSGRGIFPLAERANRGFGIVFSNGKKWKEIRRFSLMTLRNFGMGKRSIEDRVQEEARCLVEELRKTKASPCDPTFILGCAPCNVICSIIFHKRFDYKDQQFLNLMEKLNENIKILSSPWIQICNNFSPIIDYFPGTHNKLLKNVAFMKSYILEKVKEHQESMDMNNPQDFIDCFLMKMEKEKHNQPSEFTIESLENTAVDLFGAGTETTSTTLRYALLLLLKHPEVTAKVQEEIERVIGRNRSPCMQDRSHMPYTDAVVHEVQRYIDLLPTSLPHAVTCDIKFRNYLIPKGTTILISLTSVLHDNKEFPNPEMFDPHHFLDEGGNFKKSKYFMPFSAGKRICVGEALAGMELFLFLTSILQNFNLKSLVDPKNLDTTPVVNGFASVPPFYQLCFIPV
In another data set the target is T4, Cytochrome P450 1A2 (Homo sapiens, UniProt P05177).
T4 sequence (P05177 whole entry): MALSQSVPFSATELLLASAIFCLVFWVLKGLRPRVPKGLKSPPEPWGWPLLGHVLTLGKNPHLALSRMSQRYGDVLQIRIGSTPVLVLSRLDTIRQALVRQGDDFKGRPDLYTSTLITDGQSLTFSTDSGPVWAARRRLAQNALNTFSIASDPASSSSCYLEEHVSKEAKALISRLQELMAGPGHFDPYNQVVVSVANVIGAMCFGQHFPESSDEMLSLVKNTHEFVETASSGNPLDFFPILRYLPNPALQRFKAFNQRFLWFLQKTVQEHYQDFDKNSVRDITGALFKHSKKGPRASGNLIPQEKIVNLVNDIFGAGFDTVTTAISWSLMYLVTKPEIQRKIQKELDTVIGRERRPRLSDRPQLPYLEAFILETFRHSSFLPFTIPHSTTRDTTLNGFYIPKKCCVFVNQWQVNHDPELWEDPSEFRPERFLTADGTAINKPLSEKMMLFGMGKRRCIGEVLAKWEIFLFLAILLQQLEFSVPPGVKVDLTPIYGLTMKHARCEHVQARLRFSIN
The data set is described as follows: Inhibition of CYP1A2. In kind it is ADME.

Data set [12] relates to Mus musculus. The data set is described as follows: Antidiabetic activity in po dosed fasting insulin-resistant ob/ob mouse assessed as improvement in glucose sensitivity administered once daily for 15 days measured on day 12 of dosing by OGTT method. In kind it is functional, organism-based.
Data set [13] in a line: Half life in CD mouse at 10 mg/kg, po. In kind it is ADME, organism-based. The arrangement: dose 10 mg/kg, route oral. The following applies: in vivo.
The next data set deals with Cytochrome P450 2D6 (Homo sapiens, UniProt P10635). Description: Inhibition of CYP2D6. Type of data set: ADME.
Cytochrome P450 2D6, sequence (P10635 whole entry): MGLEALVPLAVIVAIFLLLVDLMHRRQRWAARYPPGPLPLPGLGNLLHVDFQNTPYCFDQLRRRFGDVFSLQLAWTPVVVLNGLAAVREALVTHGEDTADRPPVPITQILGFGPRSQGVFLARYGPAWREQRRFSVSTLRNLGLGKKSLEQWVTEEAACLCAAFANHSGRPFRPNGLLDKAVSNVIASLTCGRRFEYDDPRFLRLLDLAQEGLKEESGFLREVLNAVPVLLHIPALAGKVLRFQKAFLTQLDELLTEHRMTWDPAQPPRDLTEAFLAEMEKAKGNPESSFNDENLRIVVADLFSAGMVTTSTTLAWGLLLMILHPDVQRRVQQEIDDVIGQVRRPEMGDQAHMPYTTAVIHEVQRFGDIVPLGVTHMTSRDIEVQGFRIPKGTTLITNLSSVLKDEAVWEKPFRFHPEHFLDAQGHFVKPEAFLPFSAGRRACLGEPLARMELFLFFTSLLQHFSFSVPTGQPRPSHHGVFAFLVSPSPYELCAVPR
A further data set concerns Liver microsomes. Description: Intrinsic clearance in human liver microsomes. In kind it is ADME, Microsome. On the technique in general: Liver microsomes are vesicles of endoplasmic reticulum, rich in cytochrome P450 enzymes.
A further data set concerns the target Cytochrome P450 3A4 (Homo sapiens, UniProt P08684). The data set is described as follows: Inhibition of CYP3A4. In kind it is ADME.
Data set [14] in a line: Permeability across artificial membrane. In kind it is ADME. The following applies: PAMPA; read-out: permeability. For orientation: The PAMPA barrier holds no transporters, so it reflects passive diffusion.

Values after ≈ are worked out from the molar mass of the structure shown. Active and inactive are the calls of the source. No cut-off for these calls is given here. Bounds are passed on as bounds.

Cytochrome P450 3A4, sequence (P08684 whole entry, the tested form may be a part): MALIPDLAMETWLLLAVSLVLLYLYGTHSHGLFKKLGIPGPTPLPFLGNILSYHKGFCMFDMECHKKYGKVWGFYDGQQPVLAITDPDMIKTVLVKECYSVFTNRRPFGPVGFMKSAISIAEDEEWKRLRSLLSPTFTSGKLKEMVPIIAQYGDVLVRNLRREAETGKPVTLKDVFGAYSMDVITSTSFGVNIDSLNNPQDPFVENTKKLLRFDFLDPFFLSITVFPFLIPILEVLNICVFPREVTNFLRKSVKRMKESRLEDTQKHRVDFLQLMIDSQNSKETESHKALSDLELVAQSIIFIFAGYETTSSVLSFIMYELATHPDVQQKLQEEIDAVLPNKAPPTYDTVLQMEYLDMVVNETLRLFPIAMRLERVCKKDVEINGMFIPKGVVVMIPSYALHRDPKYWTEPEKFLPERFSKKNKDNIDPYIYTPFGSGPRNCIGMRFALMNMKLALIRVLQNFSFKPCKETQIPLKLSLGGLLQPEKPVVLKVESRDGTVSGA

Compound `CCCCN(c1cccc(-c2ccc(Cl)cc2)c1C)S(=O)(=O)c1ccc(OC(C)C(=O)O)c(C)c1C` (stereo not given) registered an AUC in the data set with Mus musculus [1] of 575 ng·h/mL/mg/kg. For the same compound, the IC50 (usually the point on the concentration scale where inhibition reaches its midpoint) is 20 µM in data set [2] and 0.0501 µM in [4]. Further, the concentration for a half-maximal effect (EC50) – broadly, the concentration giving half of the maximal effect – in [3] is 0.0251 µM.

`CCCCN(c1cccc(-c2ccc(OC(F)(F)F)cc2)c1Cl)S(=O)(=O)c1ccc(OC(C)C(=O)O)c(C)c1C` (stereo not given): the EC50 in data set [5] was 0.01 µM; in data set [3], 0.00251 µM; in data set [9], 0.0251 µM. Moreover, the outcome with Mus musculus [6] and in the data set on Mus musculus [11] was Active. For the same compound, the concentration in solution in data set [7] (solubility) came to 140 µM (≈ 84 µg/mL). For the same compound, the concentration for half-maximal inhibition (IC50) in data set [2] is 10 µM; against Cytochrome P450 2C19, greater than 3.16 µM; in [8] it was 6.31 µM; against Cytochrome P450 2C9 it was 0.794 µM; at Cytochrome P450 1A2, greater than 3.16 µM; at Cytochrome P450 2D6, greater than 3.16 µM. The half-inhibitory concentration (IC50) in data set [4] was 0.0158 µM; on Cytochrome P450 3A4, greater than 3.16 µM. The AUC(0-inf) (as a rule, total exposure, with the tail of the curve extrapolated) in [10] is 5.87 µg·h/mL. For the same compound, the Activity result with Mus musculus [12] was “Dose-dependent effect”. In addition, the half-life (usually the time in which the quantity being followed falls by half) in data set [13] is 5.4 h. The same compound displayed a CL in the data set with Liver microsomes of 28 µL/min/mg. Also, in [14], the Papp turned out to be 250 nm/s.

For `CCCCN(c1ccc(F)c(-c2ccc(Cl)cc2)c1)S(=O)(=O)c1ccc(OC(C)C(=O)O)c(C)c1C` (stereo not given), the half-maximal inhibitory concentration (IC50) in data set [2] is 20 µM; in [8] it was 2 µM; in data set [4] it was 0.2 µM. Moreover, in [3], the concentration giving a half-maximal response (EC50) was 0.0398 µM.

As to `CCCCN(c1cccc(-c2ccc(C(F)(F)F)cc2)c1Cl)S(=O)(=O)c1ccc(OC(C)C(=O)O)c(C)c1C` (stereo not given), the half-maximal effective concentration (EC50) in data set [5] is 0.00398 µM; in data set [3] it was 0.00251 µM; in data set [9], 0.01 µM. Also, the outcome in the data set with Mus musculus [6] and with Mus musculus [11] was Active. In addition, the solubility (in general, the concentration that dissolves in the medium under given conditions) in [7] amounted to 140 µM (≈ 81.8 µg/mL). The 50% inhibitory concentration (IC50) in data set [2] is 7.94 µM; against Cytochrome P450 2C19, greater than 3.16 µM; in [8], 6.31 µM; against Cytochrome P450 2C9, 0.794 µM; against Cytochrome P450 1A2, greater than 3.16 µM; against Cytochrome P450 2D6, greater than 3.16 µM. Also, the results for the IC50 (in [4]; on Cytochrome P450 3A4) were 0.00631 µM and greater than 3.16 µM, respectively. For the same compound, in data set [10], the AUC(0-inf) turned out to be 2.48 µg·h/mL. In addition, the Activity result with Mus musculus [12] is “Dose-dependent effect”. Moreover, in [13], the half-life is 4.3 h. The same compound showed a CL in the data set with Liver microsomes of 18 µL/min/mg. Moreover, the Papp in [14] is 250 nm/s.

`Cc1cc(S(=O)(=O)N(CCC(C)C)c2cccc(-c3ccc(C(F)(F)F)cc3)c2)ccc1OCC(=O)O`: the IC50 in data set [2] was 15.8 µM; in [8] it was 5.01 µM; in [4], 1.26 µM. Also, the EC50 in [3] was 0.158 µM.
